{"source": "patent US20250041227A1", "about": "“TABLET FORMULATIONS OF RBP4 INHIBITORS AND METHODS OF USE” (BELITE BIO, INC, priority 2021, published 2025)", "test_system": "male cynomolgus monkeys", "test": "In-life clinical observations (tolerability)", "assay_type": "in vivo", "conditions": "single PO 5 mg/animal per phase, 6 phases", "source_text": "The test system and study design were as follows. A total of 4 male non-naïve cynomolgus monkeys were assigned to the study (age: >2 years old and body weight: 2.5-4 kg). Each animal received a single dose of capsule or tablet at the start of each phase and there were 6 phases in total. The same animals, Animal Nos. C1001, C1002, C1003 and C1004, were used for each phase with a minimum 5-day washout period between dosing for each phase, except for Animal No. C1002, Animal Tattoo No. C1708339, which was replaced by another non-naïve cynomolgus monkey, Animal Tattoo No. C1703319, due to dosing failure that happened in Phase 3. As a result, Animal Tattoo No. C1708339 was used in Phase 1 and 2, Animal Tattoo No. C1703319 was used in Phases 3 to 6. All animals were fasted overnight prior to dosing, food was returned at 4 hours post-dose.\nAnimals were physically examined prior to study initiation to confirm their health. Clinical observations were performed twice daily (approximately 9:30 a.m. and 4:00 p.m.). Cage-side observations for general health and appearance were also performed. On dosing day, animals were also observed before and after each sample collection time point. General condition, behavior, activity, excretion, respiration or other unusual observations noted throughout the study were recorded."}
{"smiles": "CC(=O)N1CCc2c(C(=O)N3CCC(c4ccc(F)c(F)c4C(F)(F)F)CC3)n[nH]c2C1", "note": "[Compound 1, 1-(3-(4-(3,4-difluoro-2-(trifluoromethyl)phenyl)piperidine-1-carbonyl)-1,4,5,7-tetrahydro-6H-pyrazolo[3,4-c]pyridin-6-yl)ethan-1-one]", "values": [{"measurement": "adverse effects during the in-life phase", "value": "No adverse effects were observed"}]}
